≈ marks a conversion by molar mass, not a printed value.

Among the test systems are Escherichia coli K88; Escherichia coli UB1005; Staphylococcus aureus; Pseudomonas aeruginosa; Escherichia coli; Candida albicans.
What all share (experiment): ≥ marks a high value that may be exact or a test limit, other limits are often not marked, values filed in µg/mL are converted to µM
Test [1] concerns Pseudomonas aeruginosa ATCC 27853.
The subject of test [2] is Staphylococcus epidermidis ATCC 12228.
The subject of test [3] is Escherichia coli CVCC 1515.
The subject of test [4] is Staphylococcus aureus ATCC 29213.
Test [5] relates to Salmonella enterica subsp. enterica serovar Typhimurium ATCC 14028.
For test [6], the system named is Escherichia coli ATCC 25922.
For test [7], the system named is Candida albicans ATCC 90029.

Consider `CC(C)C[C@H](NC(=O)[C@H](Cc1c[nH]c2ccccc12)NC(=O)[C@H](C)NC(=O)[C@H](CCCCN)NC(=O)[C@H](C)NC(=O)[C@H](C)N)C(=O)N[C@@H](CCCCN)C(=O)N[C@@H](CC(C)C)C(=O)N[C@@H](Cc1c[nH]c2ccccc12)C(=O)N[C@@H](C)C(=O)N[C@@H](CCCCN)C(=O)N[C@@H](C)C(=O)N[C@@H](C)C(N)=O` [AAKAWLKLWAKAA], for which the MIC (commonly the least concentration at which growth counts as inhibited) in test [1] was 64 µM (≈ 91.3 µg/mL); in test [2] it was 64 µM (≈ 91.3 µg/mL); in [3], 16 µM (≈ 22.8 µg/mL); in the test with Escherichia coli K88, 8 µM (≈ 11.4 µg/mL); in [4] it was 64 µM (≈ 91.3 µg/mL); in test [5] it was 32 µM (≈ 45.7 µg/mL). For the same molecule, the MIC against Escherichia coli UB1005 was found to be 16 µM (≈ 22.8 µg/mL); in test [6], 2 µM (≈ 2.85 µg/mL).
In the case of `CC(C)C[C@H](NC(=O)[C@H](CCCN=C(N)N)NC(=O)[C@H](Cc1cnc[nH]1)NC(=O)[C@H](CCCN=C(N)N)NC(=O)[C@H](CC(C)C)NC(=O)[C@H](CC(C)C)NC(=O)[C@@H](N)CCCCN)C(=O)N[C@@H](CC(C)C)C(=O)N[C@H](C(=O)N[C@H](C(=O)N[C@@H](CC(C)C)C(=O)N[C@@H](C)C(=O)O)[C@@H](C)O)C(C)C` [KLLRHRLLVTLA], the MIC against Staphylococcus aureus is 4.36 µM (≈ 6.25 µg/mL); in the test on Pseudomonas aeruginosa it was 8.72 µM (≈ 12.5 µg/mL); in the test with Escherichia coli, 4.36 µM (≈ 6.25 µg/mL); in test [4] it was 4.36 µM (≈ 6.25 µg/mL); against Candida albicans it was more than 69.8 µM; in [7] it was not below 69.8 µM. Besides, the MIC in test [6] is 2.18 µM (≈ 3.12 µg/mL).
In the case of `CC(C)C[C@H](NC(=O)[C@H](Cc1cnc[nH]1)NC(=O)[C@H](CO)NC(=O)[C@H](C)NC(=O)[C@H](CC(C)C)NC(=O)[C@@H](NC(=O)[C@@H](NC(=O)[C@H](CC(C)C)NC(=O)[C@H](CC(C)C)NC(=O)[C@H](CO)NC(=O)[C@H](Cc1cnc[nH]1)NC(=O)[C@H](CO)NC(=O)[C@H](CC(C)C)NC(=O)[C@H](CC(C)C)NC(=O)[C@H](CCCCN)NC(=O)[C@H](Cc1ccccc1)NC(=O)[C@H](CCCN=C(N)N)NC(=O)[C@@H](N)C(C)C)C(C)C)[C@@H](C)O)C(=O)O` [VRFKLLSHSLLVTLASHL], the MIC with Staphylococcus aureus worked out at 3.07 µM (≈ 6.25 µg/mL); in the test on Pseudomonas aeruginosa it was 3.07 µM (≈ 6.25 µg/mL); in the test on Escherichia coli, 6.14 µM (≈ 12.5 µg/mL); in test [4], 6.14 µM (≈ 12.5 µg/mL); against Candida albicans it was 12.3 µM (≈ 25 µg/mL); in [7] it was 12.3 µM (≈ 25 µg/mL). This molecule gave an MIC in test [6] of 3.07 µM (≈ 6.25 µg/mL).

For the origin of these results see DBAASP.
